Consider 3 molecules from patent publication US5250572A (priority 1992, dated 1993).

For data set [1], the target named is T1, 5HT1B (Rattus norvegicus, UniProt P28564).
T1 construct: brain tissues from male Sprague-Dawley rats was homogenized; from tissue; host or cells: brain of male Sprague-Dawley rats, crude synaptosomal membranes
The data set can be described thus: Inhibition of 3H-serotonin binding to 5HT1B receptor. Further details: species or system male Sprague-Dawley). The note with it: rat brain membranes, 25° C., 30 min, pH 7.4. As for the experimental part:
(§1) This general procedure is set forth by Wong et al., Life Sciences, 46, 231 (1990).
(§2) Bovine choroid plexus and brain tissues from male Sprague-Dawley rats was homogenized in 9 volumes of 0.32 M sucrose. After centrifugation at 1000×g for 10 minutes and then at 17,000×g for 20 minutes, a crude synaptosomal fraction was sedimented. The pellet was suspended in 100 volumes of 50 mM Tris-HCI, pH 7.4, incubated at 37° C. for 10 minutes, and centrifuged at 50,000×g for 10 minutes. The process was repeated, and the final pellet of membrane was suspended in ice-chilled 50 mM Tris-HCI buffer, pH 7.4.
(§3) Binding of ^3 H-mesulergine to the 5HT1C receptor and other serotonergic ^3 H-ligands to subtypes of 5HT receptors (^3 H-8-hydroxy-2-(di-n-propylamino)tetralin to 5HT1A; ^3 H-serotonin to 5HT1B and 5HT1D; ^3 H-ketanserin to 5HT2; and ^3 H-1-methyl-N-(8-methyl-8-azabicyclo[3.2.1]oct-3-yl)-1H-indazaole-3-carboxamide to 5HT3 receptors) was performed according to the method described in the above reference. Briefly, membranes isolated from bovine choroid plexus (for 5HT1C) or rat brain were incubated at 25° C. for 30 minutes in 2 ml of 50 mM Tris-HCl, pH 7.4; 10 mM pargyline, 0.6 mM ascorbic acid; 5 mM CaCl2; and 2 nM ^3 H-mesulergine or other tritiated ligand. […] Radioactivity was measured with a liquid scintillation spectrometer. […]

The target in data set [2] is T2, 5HT3 receptors (Rattus norvegicus, UniProt P35563).
T2 construct: brain tissues from male Sprague-Dawley rats was homogenized; from tissue; host or cells: brain of male Sprague-Dawley rats, crude synaptosomal membranes
T2 sequence (P35563 24-483): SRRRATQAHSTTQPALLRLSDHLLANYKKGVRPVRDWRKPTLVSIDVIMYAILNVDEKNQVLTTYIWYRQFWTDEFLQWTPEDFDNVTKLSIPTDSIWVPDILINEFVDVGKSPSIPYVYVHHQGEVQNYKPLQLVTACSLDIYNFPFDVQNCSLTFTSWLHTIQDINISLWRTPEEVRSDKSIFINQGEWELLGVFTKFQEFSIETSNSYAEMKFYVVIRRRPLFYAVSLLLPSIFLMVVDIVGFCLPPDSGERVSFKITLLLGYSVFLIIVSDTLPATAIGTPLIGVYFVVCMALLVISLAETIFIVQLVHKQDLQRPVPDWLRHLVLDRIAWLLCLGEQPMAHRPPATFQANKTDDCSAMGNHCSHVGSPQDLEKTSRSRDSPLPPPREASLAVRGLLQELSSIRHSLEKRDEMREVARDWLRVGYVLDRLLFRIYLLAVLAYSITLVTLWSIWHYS
Nature of the data set: Inhibition of 3H-1-methyl-N-(8-methyl-8-azabicyclo[3.2.1]oct-3-yl)-1H-indazaole-3-carboxamide binding to 5HT3 receptors. Further details: species or system male Sprague-Dawley). The conditions noted are these: rat brain membranes, 25° C., 30 min, pH 7.4. As for the experimental part:
as §1, §2, §3

Data set [3] concerns the target T3, 5HT1C receptor (Bos taurus, UniProt A0AAA9SBU1).
T3 sequence (A0AAA9SBU1 33-457): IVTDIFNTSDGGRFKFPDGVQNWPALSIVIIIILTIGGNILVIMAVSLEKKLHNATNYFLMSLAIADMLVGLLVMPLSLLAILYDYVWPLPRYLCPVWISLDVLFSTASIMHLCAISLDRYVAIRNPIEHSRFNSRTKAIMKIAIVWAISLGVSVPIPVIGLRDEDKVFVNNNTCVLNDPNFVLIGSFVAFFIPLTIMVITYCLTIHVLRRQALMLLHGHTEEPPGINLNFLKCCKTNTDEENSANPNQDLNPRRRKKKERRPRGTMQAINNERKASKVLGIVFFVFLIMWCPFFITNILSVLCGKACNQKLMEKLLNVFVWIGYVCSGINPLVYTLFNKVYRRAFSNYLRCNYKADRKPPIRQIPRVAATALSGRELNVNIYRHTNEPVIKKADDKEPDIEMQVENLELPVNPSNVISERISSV
The data set can be described thus: Inhibition of 3H-mesulergine binding to 5HT1C receptor. The note with it: read-out: Inhibition of Radioligand Binding to 5HT Receptor, 1C (IC50); bovine choroid plexus membranes, 2 nM 3H-mesulergine, 25° C., 30 min, pH 7.4; mean of three experiments. The method, then:
as §1, §2, §3

In data set [4] the test system is metabolism of concurrently administered drugs such as barbiturates or tricyclic antidepressants.
Data set [5] is described as follows: Toxicity and therapeutic index (statements in words).
Data set [6] addresses T4, 5HT1A (Rattus norvegicus, UniProt P19327).
T4 construct: brain tissues from male Sprague-Dawley rats was homogenized; from tissue; host or cells: brain of male Sprague-Dawley rats, crude synaptosomal membranes
T4 sequence (P19327 1-422): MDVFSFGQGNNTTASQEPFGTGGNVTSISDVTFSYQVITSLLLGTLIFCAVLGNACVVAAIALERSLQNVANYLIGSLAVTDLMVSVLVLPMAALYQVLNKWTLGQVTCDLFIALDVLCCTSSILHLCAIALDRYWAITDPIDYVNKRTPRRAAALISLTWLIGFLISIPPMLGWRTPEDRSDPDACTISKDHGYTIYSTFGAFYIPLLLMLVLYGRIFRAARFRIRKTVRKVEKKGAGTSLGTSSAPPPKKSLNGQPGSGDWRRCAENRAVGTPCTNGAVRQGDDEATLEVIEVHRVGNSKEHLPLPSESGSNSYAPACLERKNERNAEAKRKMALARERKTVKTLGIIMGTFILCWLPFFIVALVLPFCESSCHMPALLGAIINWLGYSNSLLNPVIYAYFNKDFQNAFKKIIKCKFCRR
Nature of the data set: Inhibition of 3H-8-hydroxy-2-(di-n-propylamino)tetralin binding to 5HT1A receptor. Further details: species or system male Sprague-Dawley). The conditions noted are these: rat brain membranes, 25° C., 30 min, pH 7.4. The method, then:
as §1, §2, §3

Data set [7] addresses 5HT1D. Nature of the data set: Inhibition of 3H-serotonin binding to 5HT1D receptor. Further details: species or system male Sprague-Dawley). The conditions noted are these: read-out: Inhibition of Radioligand Binding to 5HT Receptor, 1D (IC50), rat brain membranes, 25° C., 30 min, pH 7.4. The method, then:
as §1, §2, §3

Data set [8] relates to serotonin uptake. The conditions noted are these: words, cited from earlier work.

T1 sequence (P28564 whole entry): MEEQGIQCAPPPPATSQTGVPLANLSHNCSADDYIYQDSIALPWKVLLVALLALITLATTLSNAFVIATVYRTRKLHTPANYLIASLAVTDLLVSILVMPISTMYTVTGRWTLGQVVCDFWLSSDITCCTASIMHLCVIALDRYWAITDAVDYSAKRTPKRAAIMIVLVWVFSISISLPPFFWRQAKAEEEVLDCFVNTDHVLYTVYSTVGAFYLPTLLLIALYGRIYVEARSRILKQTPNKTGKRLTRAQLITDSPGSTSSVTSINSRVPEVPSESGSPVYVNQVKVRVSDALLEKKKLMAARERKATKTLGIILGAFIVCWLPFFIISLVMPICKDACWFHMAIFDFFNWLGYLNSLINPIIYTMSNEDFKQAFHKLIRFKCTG

`NCC[C@@H](Oc1ccc(C(F)(F)F)cc1)c1ccccc1` [(R)-Norfluoxetine]: the IC50 in data set [1] turned out to be 24 µM; in data set [2], 12 µM; in data set [3], 0.47 µM; in data set [6], 22 µM; in data set [7], 101 µM. Also, the “effect on metabolism of concurrently administered drugs” value in data set [4] is listed as “little effect on metabolism of concurrently administered drugs”. Also, in data set [5], the toxicity entry was “relatively non-toxic”.
For the molecule `NCCC(Oc1ccc(C(F)(F)F)cc1)c1ccccc1` (racemic) [Norfluoxetine, 3-(4-trifluoromethylphenoxy)-3-phenylpropylamine], the “serotonin / monoamine uptake blockade” value in data set [8] (background, known from earlier patents) is reported as “block monoamine uptake, especially serotonin”.
For `NCC[C@H](Oc1ccc(C(F)(F)F)cc1)c1ccccc1` [(S)-norfluoxetine], the “activity as serotonin uptake inhibitor” value in data set [8] (relative to (R)-antipode, from copending application Ser. No. 07/486,478) is reported as “substantially more active than its (R)-antipode”.
